According to patent US12344597B2, “Alkoxy-substituted pyridinyl derivatives as LPA1 receptor antagonists and their use in the treatment of fibrosis” (IDORSIA PHARMACEUTICALS LTD, priority 2018, dated 2025):

These compounds were tested against human LPA1 receptor (Homo sapiens (Human), UniProt Q92633) (assay: Beta-arrestin recruitment assay to determine IC50 values for human LPAR1). Conditions: antagonist mode, Tango EDG2-bla U2OS cells, LPA 18:1 500 nM final.
Format: cell-based
Outline: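 Antagonist IC50 = concentration giving 50% inhibition of maximal LPA response. Read-out is beta-lactamase reporter activity after arrestin-protease recruitment in U2OS cells bearing LPA1-TEV-Gal4-VP16 construct; cells pre-incubated 20 h, 37 °C, 5% CO2.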

human LPA1 receptor, sequence (Q92633 whole entry): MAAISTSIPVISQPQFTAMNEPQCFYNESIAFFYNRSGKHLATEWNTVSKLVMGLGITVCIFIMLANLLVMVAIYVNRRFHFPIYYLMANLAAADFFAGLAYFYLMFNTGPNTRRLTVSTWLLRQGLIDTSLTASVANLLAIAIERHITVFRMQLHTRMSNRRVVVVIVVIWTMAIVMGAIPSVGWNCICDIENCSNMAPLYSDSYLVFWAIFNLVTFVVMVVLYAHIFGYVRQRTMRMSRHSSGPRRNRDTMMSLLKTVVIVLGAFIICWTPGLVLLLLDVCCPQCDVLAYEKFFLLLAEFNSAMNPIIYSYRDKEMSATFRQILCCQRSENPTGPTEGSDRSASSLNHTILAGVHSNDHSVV

| Compound | IC50 [nM] |
| --- | --- |
| COCCNS(=O)(=O)N1CC(C(=O)Nc2cccnc2OC)(c2ccccc2)C1 [Ex 86, 1-(N-(2-methoxyethyl)sulfamoyl)-N-(2-methoxypyridin-3-yl)-3-phenylazetidine-3-carboxamide, reference compound] | > 10000 |
| Cc1ccc(NC(=O)C2(c3ccccc3C(C)C)CN(C(=O)c3nnn[nH]3)C2)c(OC(F)F)n1 [Ex 12-18, N-(2-(difluoromethoxy)-6-methylpyridin-3-yl)-3-(2-isopropylphenyl)-1-(1H-tetrazole-5-carbonyl)azetidine-3-carboxamide] | 25 |
| COc1ccc(NC(=O)C2(c3ccccc3C(C)C)CN(C(=O)CC(C)(C)C(=O)O)C2)c(OC)n1 [Ex 12-86, 4-(3-((2,6-dimethoxypyridin-3-yl)carbamoyl)-3-(2-isopropylphenyl)azetidin-1-yl)-2,2-dimethyl-4-oxobutanoic acid] | 27 |
| N-(2-(difluoromethoxy)-6-methylpyridin-3-yl)-1-(3-(N-hydroxyacetamido)propanoyl)-3-(2-isopropylphenyl)azetidine-3-carboxamide [Ex 12-130] | 48 |
| Cc1ccc(C(C)C)c(C2(C(=O)Nc3ccc(C)nc3OC(F)F)CNC2)c1 [Ex 34, N-(2-(difluoromethoxy)-6-methylpyridin-3-yl)-3-(2-isopropyl-5-methylphenyl)azetidine-3-carboxamide] | 142 |
| Cc1ccc(NC(=O)C2(c3ccccc3C(C)C)CN(C(=O)c3cn[nH]c3)C2)c(OC(F)F)n1 [Ex 12-15, N-(2-(difluoromethoxy)-6-methylpyridin-3-yl)-3-(2-isopropylphenyl)-1-(1H-pyrazole-4-carbonyl)azetidine-3-carboxamide] | 36 |
| Cc1ccc(NC(=O)C2(c3ccccc3C(C)C)CN(C(=O)C3(CC(=O)O)COC3)C2)c(OC(F)F)n1 [Ex 12-99, 2-(3-(3-((2-(difluoromethoxy)-6-methylpyridin-3-yl)carbamoyl)-3-(2-isopropylphenyl)azetidine-1-carbonyl)oxetan-3-yl)acetic acid] | 16 |
| Cc1ccc(NC(=O)C2(c3ccccc3C(C)C)CCN(C(=O)CC(C)(C)C(=O)O)C2)c(OC(F)F)n1 (stereo not shown) [Ex 12-83, 4-(3-((2-(difluoromethoxy)-6-methylpyridin-3-yl)carbamoyl)-3-(2-isopropylphenyl)pyrrolidin-1-yl)-2,2-dimethyl-4-oxobutanoic acid] | 24 |
| Cc1ccc(NC(=O)C2(c3ccccc3C(C)C)CN(C(=O)[C@H](O)[C@@H](O)C(=O)O)C2)c(OC(F)F)n1 [Ex 12-118, (2R,3R)-4-(3-((2-(difluoromethoxy)-6-methylpyridin-3-yl)carbamoyl)-3-(2-isopropylphenyl)azetidin-1-yl)-2,3-dihydroxy-4-oxobutanoic acid] | 30 |
| Cc1ccc(NC(=O)C2(c3ccccc3C(C)C)CN(CCO)C2)c(OC(F)F)n1 [Ex 11-2, N-(2-(difluoromethoxy)-6-methylpyridin-3-yl)-1-(2-hydroxyethyl)-3-(2-isopropylphenyl)azetidine-3-carboxamide] | 5 |
| Cc1ccc(NC(=O)C2(c3ccccc3C(C)C)CCN(C[C@@H](O)CO)CC2)c(OC(F)F)n1 [Ex 11-19, (R)-N-(2-(difluoromethoxy)-6-methylpyridin-3-yl)-1-(2,3-dihydroxypropyl)-4-(2-isopropylphenyl)piperidine-4-carboxamide] | 14 |
| Cc1ccc(NC(=O)C2(c3ccccc3C(C)C)CN(C(=O)CC3CCC(C(=O)O)CC3)C2)c(OC(F)F)n1 (stereo not shown) [Ex 52, 4-(2-(3-((2-(difluoromethoxy)-6-methylpyridin-3-yl)carbamoyl)-3-(2-isopropylphenyl)azetidin-1-yl)-2-oxoethyl)cyclohexane-1-carboxylic acid] | 51 |
| Cc1ccc(NC(=O)C2(c3ccccc3C(C)C)CN(C(=O)CCc3cc(O)no3)C2)c(OC(F)F)n1 [Ex 12-29, N-(2-(difluoromethoxy)-6-methylpyridin-3-yl)-1-(3-(3-hydroxyisoxazol-5-yl)propanoyl)-3-(2-isopropylphenyl)azetidine-3-carboxamide] | 32 |
| CC(C)c1ccccc1C1(C(=O)Nc2cc(F)cnc2OC(F)F)CN(C(=O)CC(C)(C)C(=O)O)C1 [Ex 12-87, 4-(3-((2-(difluoromethoxy)-5-fluoropyridin-3-yl)carbamoyl)-3-(2-isopropylphenyl)azetidin-1-yl)-2,2-dimethyl-4-oxobutanoic acid] | 41 |
| Cc1ccc(NC(=O)C2(c3ccccc3C(C)C)CCN(C(=O)CCC(=O)C(F)(F)F)CC2)c(OC(F)F)n1 [Ex 12-12, N-(2-(difluoromethoxy)-6-methylpyridin-3-yl)-4-(2-isopropylphenyl)-1-(5,5,5-trifluoro-4-oxopentanoyl)piperidine-4-carboxamide] | 7 |
| Cc1ccc(NC(=O)C2(c3ccccc3C(C)C)CN(CCCC3(C(=O)O)CC3)C2)c(OC(F)F)n1 [Ex 11-71, 1-(3-(3-((2-(difluoromethoxy)-6-methylpyridin-3-yl)carbamoyl)-3-(2-isopropylphenyl)azetidin-1-yl)propyl)cyclopropane-1-carboxylic acid] | 7 |
| Cc1ccc(NC(=O)C2(c3ccccc3C(C)C)CN(C(=O)C3C4CC3(C(=O)O)C4)C2)c(OC(F)F)n1 (stereo not shown) [Ex 12-108, 2-(3-((2-(difluoromethoxy)-6-methylpyridin-3-yl)carbamoyl)-3-(2-isopropylphenyl)azetidine-1-carbonyl)bicyclo[1.1.1]pentane-1-carboxylic acid] | 28 |
| Cc1ccc(NC(=O)C2(c3ccccc3C(C)C)CN(C(=O)[C@H]3CNCCO3)C2)c(OC(F)F)n1 [Ex 12-42, (R)-N-(2-(difluoromethoxy)-6-methylpyridin-3-yl)-3-(2-isopropylphenyl)-1-(morpholine-2-carbonyl)azetidine-3-carboxamide] | 71 |
| Cc1ccc(NC(=O)C2(c3ccccc3C(C)C)CN(C(=O)CNC[C@H](C)O)C2)c(OC(F)F)n1 [Ex 12-56, (S)-N-(2-(difluoromethoxy)-6-methylpyridin-3-yl)-1-((S)-(2-hydroxypropyl)glycyl)-3-(2-isopropylphenyl)azetidine-3-carboxamide] | 7 |
| Cc1ccc(NC(=O)C2(c3ccccc3C(C)C)CN(CC3COC3)C2)c(OC(F)F)n1 [Ex 11-5, N-(2-(difluoromethoxy)-6-methylpyridin-3-yl)-3-(2-isopropylphenyl)-1-(oxetan-3-ylmethyl)azetidine-3-carboxamide] | 29 |
| COCCNCC(=O)N1CCC(C(=O)Nc2ccc(C)nc2OC(F)F)(c2ccccc2C(C)C)CC1 [Ex 12-48, N-(2-(difluoromethoxy)-6-methylpyridin-3-yl)-4-(2-isopropylphenyl)-1-((2-methoxyethyl)glycyl)piperidine-4-carboxamide] | 9 |
| Cc1ccc(NC(=O)C2(c3ccccc3C(C)C)CN(C(=O)CN[C@@H](C)CO)C2)c(OC(F)F)n1 [Ex 12-59, (S)-N-(2-(difluoromethoxy)-6-methylpyridin-3-yl)-1-((R)-(1-hydroxypropan-2-yl)glycyl)-3-(2-isopropylphenyl)azetidine-3-carboxamide] | 10 |
| Cc1ccc(NC(=O)C2(c3ccccc3C(C)C)CNC2)c(OC(C)C)n1 [Ex 2, N-(2-isopropoxy-6-methylpyridin-3-yl)-3-(2-isopropylphenyl)azetidine-3-carboxamide] | 320 |

More lines, now with the values ahead:

| IC50 [nM] | Compound |
| --- | --- |
| 5 | CC(C)c1ccccc1C1(C(=O)Nc2cccnc2OC(F)F)CN(c2ncc(C#N)cn2)C1 [Ex 18-25, 1-(5-cyanopyrimidin-2-yl)-N-(2-(difluoromethoxy)pyridin-3-yl)-3-(2-isopropylphenyl)azetidine-3-carboxamide] |
| 47 | CC(=O)NS(=O)(=O)N(C)CC(=O)N1CC(C(=O)Nc2ccc(C)nc2OC(F)F)(c2ccccc2C(C)C)C1 [Ex 16-5, 1-(N-(N-acetylsulfamoyl)-N-methylglycyl)-N-(2-(difluoromethoxy)-6-methylpyridin-3-yl)-3-(2-isopropylphenyl)azetidine-3-carboxamide] |
| 12 | Cc1ccc(NC(=O)C2(c3ccccc3C(C)C)CN(C(=O)NC(C)(C)CC(=O)O)C2)c(OC(F)F)n1 [Ex 17-2, 3-(3-((2-(difluoromethoxy)-6-methylpyridin-3-yl)carbamoyl)-3-(2-isopropylphenyl)azetidine-1-carboxamido)-3-methylbutanoic acid] |
| 7 | COC(=O)CS(=O)(=O)N1CCC(C(=O)Nc2ccc(C)nc2OC(F)F)(c2ccccc2C(C)C)CC1 [Ex 13-2, methyl 2-((4-((2-(difluoromethoxy)-6-methylpyridin-3-yl)carbamoyl)-4-(2-isopropylphenyl)piperidin-1-yl)sulfonyl)acetate] |
| 26 | Cc1ccc(NC(=O)C2(c3ccccc3C(C)C)CN(C(=O)N[C@H](C(=O)O)C(C)C)C2)c(OC(F)F)n1 [Ex 17-7, (3-((2-(difluoromethoxy)-6-methylpyridin-3-yl)carbamoyl)-3-(2-isopropylphenyl)azetidine-1-carbonyl)-L-valine] |
| 83 | CC(=O)NS(=O)(=O)CC(=O)N1CC(C(=O)Nc2ccc(C)nc2OC(F)F)(c2ccccc2C(C)C)C1 [Ex 16-3, 1-(2-(N-acetylsulfamoyl)acetyl)-N-(2-(difluoromethoxy)-6-methylpyridin-3-yl)-3-(2-isopropylphenyl)azetidine-3-carboxamide] |
| 11 | CCOC(=O)C(C)(C)NC(=O)N1CC(C(=O)Nc2ccc(C)nc2OC(F)F)(c2ccccc2C(C)C)C1 [Ex 17-12, ethyl 2-(3-((2-(difluoromethoxy)-6-methylpyridin-3-yl)carbamoyl)-3-(2-isopropylphenyl)azetidine-1-carboxamido)-2-methylpropanoate] |
| 13 | COc1cc(Br)cnc1NC(=O)C1(c2ccccc2C(C)C)CN(S(N)(=O)=O)C1 [Ex 81-2, N-(5-bromo-3-methoxypyridin-2-yl)-3-(2-isopropylphenyl)-1-sulfamoylazetidine-3-carboxamide] |
